The test system of data set [1] is fibroblast cell line NIH3T3. The data set can be described thus: Cytotoxicity assay (MTT) in NIH3T3. It counts as cell-based, mouse. To be noted: NIH3T3 cells. As for the experimental part:
(§1) First, 10^4 cells of each cell line were seeded in a 96-well plate, and cultured for 24 hours. After culturing for 4 hours in a serum-free culture medium, the peptides at each concentration were injected into the wells and further incubated for 4 hours. After discarding a supernatant, 0.5 mg/ml of MTT-containing medium was treated and then left for 2 hours, formazan crystals in the cells were dissolved in each well using dimethyl sulfoxide. Then, cytotoxicity was analyzed by measuring absorbance at 570 nm using a microplate reader.

Data set [2] has as its system melanoma cell line B16F10. In words: Cytotoxicity assay (MTT) in B16F10. It counts as cell-based, mouse. To be noted: B16F10 cells. As for the experimental part:
as §1

Data set [3] deals with T1, PD-L1 on tumor-derived exosomes (T-EXO) isolated from the plasma of B16F10 melanoma tumor-bearing mice (mouse, UniProt Q9EP73 19-290).
T1 construct: whole, on cells; also called PD-L1^EXO; exosomal PD-L1
T1 sequence (Q9EP73 19-290, one chain of several): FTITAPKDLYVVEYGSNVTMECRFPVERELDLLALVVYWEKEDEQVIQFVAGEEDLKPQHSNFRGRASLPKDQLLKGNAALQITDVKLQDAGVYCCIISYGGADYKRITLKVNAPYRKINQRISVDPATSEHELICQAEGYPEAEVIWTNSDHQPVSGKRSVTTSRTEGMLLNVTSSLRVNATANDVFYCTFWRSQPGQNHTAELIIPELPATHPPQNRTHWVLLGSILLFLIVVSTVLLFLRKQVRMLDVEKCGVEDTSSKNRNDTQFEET
In words: ELISA: T-EXO captured on PD-L1 antibody-coated plate, biotin-labeled murine PD-1 (4 ug/ml) detected with streptavidin-HRP, OD 450 nm. A general note: ELISA stands for enzyme-linked immunosorbent assay.
Protocol: After treating the plate for 2 hours, the plate was washed with PBS-T (PBS containing 0.05% Tween-20). […] Wells were washed with PBS-T three times, and treated with horseradish peroxidase-conjugated streptavidin (100 μl per well; R&D Systems) diluted in 0.5% BSA-containing PBS for 30 minutes. After washing with PBS-T, the plate was treated with tetramethylbenzidine (R&D Systems) and the reaction was stopped by adding 0.5 N H₂SO₄.

Turning to `CC[C@@H](C)[C@@H](NC(=O)[C@@H](Cc1c[nH]c2ccccc12)NC(=O)[C@@H](CC(=O)O)NC(=O)[C@@H](Cc1c[nH]c2ccccc12)NC(=O)[C@H](NC(=O)[C@@H](CC(=O)O)NC(=O)[C@@H](CCCNC(=N)N)NC(=O)[C@@H](CC(C)C)NC(=O)[C@@H](Cc1c[nH]c2ccccc12)NC(=O)[C@@H](CO)NC(=O)CNC(=O)[C@H](N)CO)C(C)C)C(=O)N[C@H](CS)C(=O)N[C@@H](C(=O)N[C@@H](C(=O)N[C@H](CC(C)C)C(=O)N[C@@H](C(=O)N[C@H](CC(=O)O)C(=O)N[C@H](Cc1ccccc1)C(=O)N[C@H](CCCCN)C(=O)N[C@@H](C(=O)N[C@H](Cc1c[nH]c2ccccc12)C(=O)N[C@H](CC(C)C)C(=O)N[C@H](CCC(N)=O)C(=O)N[C@H](CO)C(=O)N[C@H](CCCCN)C(=O)N[C@H](CC(C)C)C(N)=O)[C@H](C)O)[C@H](C)O)C(C)C)[C@H](C)O` [AH-D peptide], the cytotoxicity result is “neither the AH-D peptide nor the NH-D peptide has cytotoxicity” in data set [1], “did not exhibit cytotoxicity” in data set [1] (listed as AH peptide), “neither the AH-D peptide nor the NH-D peptide has cytotoxicity” in data set [2] and “did not exhibit cytotoxicity” in data set [2] (listed as AH peptide).
Turning to `CC(C)C[C@@H](NC(=O)[C@@H](CCCCN)NC(=O)[C@@H](CO)NC(=O)[C@@H](CCC(N)=O)NC(=O)[C@@H](CC(C)C)NC(=O)[C@@H](Cc1c[nH]c2ccccc12)NC(=O)[C@H](NC(=O)[C@@H](CCCCN)NC(=O)[C@@H](CC(=O)O)NC(=O)[C@@H](CC(=O)O)NC(=O)[C@H](NC(=O)[C@@H](CC(C)C)NC(=O)[C@H](NC(=O)[C@H](NC(=O)[C@@H](CS)NC(=O)[C@@H](CCC(=O)O)NC(=O)[C@@H](Cc1c[nH]c2ccccc12)NC(=O)[C@@H](CC(=O)O)NC(=O)[C@@H](Cc1c[nH]c2ccccc12)NC(=O)[C@@H](CC(=O)O)NC(=O)[C@@H](CC(=O)O)NC(=O)[C@@H](CCCNC(=N)N)NC(=O)[C@@H](CC(C)C)NC(=O)[C@@H](Cc1c[nH]c2ccccc12)NC(=O)[C@@H](CO)NC(=O)CNC(=O)[C@H](N)CO)[C@H](C)O)C(C)C)[C@H](C)O)[C@H](C)O)C(N)=O` [NH-D peptide, reference compound], the cytotoxicity entry in data set [1] and in data set [2] was “neither the AH-D peptide nor the NH-D peptide has cytotoxicity” in each case.

B1: biotin-labeled murine PD-1 protein (cat no. 71118, BPS Bioscience) (receptor, UniProt Q02242 25-167, looked up)
chain: LEVPNGPWRSLTFYPAWLTVSEGANATFTCSLSNWSEDLMLNWNRLSPSNQTEKQAAFCNGLSQPVQDARFQIIQLPNRHDFHMNILDTRRNDSGIYLCGAISLHPKAKIEESPGAELVVTERILETSTRYPSPSPKPEGRFQ
notes: also called biotin-labeled PD-1 protein
On to B1, for which, in data set [3], the binding result is given as “binds”.

Source of the values: patent US20230113262A1, “Peptide for cancer immunotherapy rupturing tumor-derived vesicle and use thereof” (RESEARCH & BUSINESS FOUNDATION SUNGKYUNKWAN UNIVERSITY, priority 2021, published 2023).
